{"source": "PubChem BioAssay AID1259407", "about": "(Chemical Carcinogenesis Research Information System (CCRIS), 2018)", "tested_on": "CCRIS mutagenicity, Ames/micronucleus/aberration tests", "experiment": "CCRIS mutagenicity studies", "key": {"[1]": {"settings": "Test System: AMES SALMONELLA TYPHIMURIUM, Strain/Indicator: TA98, Metabolic Activation: RAT, LIVER, S-9, AROCLOR 1254, Method: STANDARD PLATE"}, "[2]": {"settings": "Test System: AMES SALMONELLA TYPHIMURIUM, Strain/Indicator: TA100, Metabolic Activation: NONE, Method: STANDARD PLATE"}, "[3]": {"settings": "Test System: AMES SALMONELLA TYPHIMURIUM, Strain/Indicator: TA98, Metabolic Activation: NONE, Method: PREINCUBATION"}, "[4]": {"settings": "Test System: AMES SALMONELLA TYPHIMURIUM, Strain/Indicator: TA100, Metabolic Activation: NONE, Method: PREINCUBATION"}, "[5]": {"settings": "Test System: AMES SALMONELLA TYPHIMURIUM, Strain/Indicator: TA1535, Metabolic Activation: NONE, Method: PREINCUBATION"}, "[6]": {"settings": "Test System: AMES SALMONELLA TYPHIMURIUM, Strain/Indicator: TA1537, Metabolic Activation: NONE, Method: PREINCUBATION"}}, "note": "The source made the active and inactive calls. The rule behind the calls is not given here."}
{"compound": "C#C[C@]1(OC(C)=O)CC[C@H]2[C@@H]3CCC4=CC(=O)CC[C@@H]4[C@H]3CC[C@@]21C", "values": [{"measurement": "mutagenic call", "setting": "Test System: AMES SALMONELLA TYPHIMURIUM, Strain/Indicator: TA97A, Metabolic Activation: NONE, Method: HOST-MEDIATED", "result": "inactive; negative"}, {"measurement": "mutagenic call", "setting": "Test System: AMES SALMONELLA TYPHIMURIUM, Strain/Indicator: TA97A, Metabolic Activation: NONE, Method: STANDARD PLATE", "result": "inactive; negative"}, {"measurement": "mutagenic call", "setting": "Test System: AMES SALMONELLA TYPHIMURIUM, Strain/Indicator: TA97A, Metabolic Activation: RAT, LIVER, S-9, PHENOBARBITONE, Method: PREINCUBATION", "result": "inactive; negative"}, {"measurement": "mutagenic call", "setting": "Test System: AMES SALMONELLA TYPHIMURIUM, Strain/Indicator: TA98, Metabolic Activation: MOUSE, LIVER, S-9, Method: STANDARD PLATE", "result": "inactive; negative"}, {"measurement": "mutagenic call", "setting": "Test System: AMES SALMONELLA TYPHIMURIUM, Strain/Indicator: TA98, Metabolic Activation: NONE, Method: HOST-MEDIATED", "result": "inactive; negative"}, {"measurement": "mutagenic call", "setting": "Test System: AMES SALMONELLA TYPHIMURIUM, Strain/Indicator: TA98, Metabolic Activation: NONE, Method: STANDARD PLATE", "result": "inactive; negative"}, {"measurement": "mutagenic call", "setting": "[1]", "result": "inactive; negative"}, {"measurement": "mutagenic call", "setting": "Test System: AMES SALMONELLA TYPHIMURIUM, Strain/Indicator: TA98, Metabolic Activation: RAT, LIVER, S-9, PHENOBARBITONE, Method: PREINCUBATION", "result": "inactive; negative"}, {"measurement": "mutagenic call", "setting": "Test System: AMES SALMONELLA TYPHIMURIUM, Strain/Indicator: TA100, Metabolic Activation: MOUSE, LIVER, S-9, Method: STANDARD PLATE", "result": "inactive; negative"}, {"measurement": "mutagenic call", "setting": "Test System: AMES SALMONELLA TYPHIMURIUM, Strain/Indicator: TA100, Metabolic Activation: NONE, Method: HOST-MEDIATED", "result": "inactive; negative"}, {"measurement": "mutagenic call", "setting": "[2]", "result": "inactive; negative"}, {"measurement": "mutagenic call", "setting": "Test System: AMES SALMONELLA TYPHIMURIUM, Strain/Indicator: TA100, Metabolic Activation: RAT, LIVER, S-9, AROCLOR 1254, Method: STANDARD PLATE", "result": "inactive; negative"}, {"measurement": "mutagenic call", "setting": "Test System: AMES SALMONELLA TYPHIMURIUM, Strain/Indicator: TA100, Metabolic Activation: RAT, LIVER, S-9, PHENOBARBITONE, Method: PREINCUBATION", "result": "inactive; negative"}, {"measurement": "mutagenic call", "setting": "Test System: AMES SALMONELLA TYPHIMURIUM, Strain/Indicator: TA1535, Metabolic Activation: MOUSE, LIVER, S-9, Method: STANDARD PLATE", "result": "inactive; negative"}, {"measurement": "mutagenic call", "setting": "Test System: AMES SALMONELLA TYPHIMURIUM, Strain/Indicator: TA1535, Metabolic Activation: NONE, Method: HOST-MEDIATED", "result": "inactive; negative"}, {"measurement": "mutagenic call", "setting": "Test System: AMES SALMONELLA TYPHIMURIUM, Strain/Indicator: TA1535, Metabolic Activation: NONE, Method: STANDARD PLATE", "result": "inactive; negative"}, {"measurement": "mutagenic call", "setting": "Test System: AMES SALMONELLA TYPHIMURIUM, Strain/Indicator: TA1535, Metabolic Activation: RAT, LIVER, S-9, AROCLOR 1254, Method: STANDARD PLATE", "result": "inactive; negative"}, {"measurement": "mutagenic call", "setting": "Test System: AMES SALMONELLA TYPHIMURIUM, Strain/Indicator: TA1535, Metabolic Activation: RAT, LIVER, S-9, PHENOBARBITONE, Method: PREINCUBATION", "result": "inactive; negative"}, {"measurement": "mutagenic call", "setting": "Test System: AMES SALMONELLA TYPHIMURIUM, Strain/Indicator: TA1537, Metabolic Activation: MOUSE, LIVER, S-9, Method: STANDARD PLATE", "result": "inactive; negative"}, {"measurement": "mutagenic call", "setting": "Test System: AMES SALMONELLA TYPHIMURIUM, Strain/Indicator: TA1537, Metabolic Activation: NONE, Method: STANDARD PLATE", "result": "inactive; negative"}, {"measurement": "mutagenic call", "setting": "Test System: AMES SALMONELLA TYPHIMURIUM, Strain/Indicator: TA1537, Metabolic Activation: RAT, LIVER, S-9, AROCLOR 1254, Method: STANDARD PLATE", "result": "inactive; negative"}, {"measurement": "mutagenic call", "setting": "Test System: AMES SALMONELLA TYPHIMURIUM, Strain/Indicator: TA1538, Metabolic Activation: MOUSE, LIVER, S-9, Method: STANDARD PLATE", "result": "inactive; negative"}, {"measurement": "mutagenic call", "setting": "Test System: AMES SALMONELLA TYPHIMURIUM, Strain/Indicator: TA1538, Metabolic Activation: NONE, Method: STANDARD PLATE", "result": "inactive; negative"}, {"measurement": "mutagenic call", "setting": "Test System: AMES SALMONELLA TYPHIMURIUM, Strain/Indicator: TA1538, Metabolic Activation: RAT, LIVER, S-9, AROCLOR 1254, Method: STANDARD PLATE", "result": "inactive; negative"}]}
{"compound": "Cc1c(C)c2c(nc(N)n2C)c2nccnc12", "values": [{"measurement": "mutagenic call", "setting": "[1]", "result": "active; positive"}]}
{"compound": "O=C1C=CC(=O)C1(Cl)Cl", "values": [{"measurement": "mutagenic call", "setting": "[2]", "result": "active; positive"}]}
{"compound": "O=C(Cl)c1ccccc1F", "values": [{"measurement": "mutagenic call", "setting": "Test System: AMES SALMONELLA TYPHIMURIUM, Strain/Indicator: TA98, Metabolic Activation: HAMSTER, LIVER, S-9, AROCLOR 1254, Method: PREINCUBATION", "result": "active; positive"}, {"measurement": "mutagenic call", "setting": "[3]", "result": "inactive; negative"}, {"measurement": "mutagenic call", "setting": "Test System: AMES SALMONELLA TYPHIMURIUM, Strain/Indicator: TA98, Metabolic Activation: RAT, LIVER, S-9, AROCLOR 1254, Method: PREINCUBATION", "result": "active; positive"}, {"measurement": "mutagenic call", "setting": "Test System: AMES SALMONELLA TYPHIMURIUM, Strain/Indicator: TA100, Metabolic Activation: HAMSTER, LIVER, S-9, AROCLOR 1254, Method: PREINCUBATION", "result": "active; positive"}, {"measurement": "mutagenic call", "setting": "[4]", "result": "inactive; negative"}, {"measurement": "mutagenic call", "setting": "Test System: AMES SALMONELLA TYPHIMURIUM, Strain/Indicator: TA100, Metabolic Activation: RAT, LIVER, S-9, AROCLOR 1254, Method: PREINCUBATION", "result": "active; positive"}, {"measurement": "mutagenic call", "setting": "Test System: AMES SALMONELLA TYPHIMURIUM, Strain/Indicator: TA1535, Metabolic Activation: HAMSTER, LIVER, S-9, AROCLOR 1254, Method: PREINCUBATION", "result": "inactive; negative"}, {"measurement": "mutagenic call", "setting": "[5]", "result": "inactive; negative"}, {"measurement": "mutagenic call", "setting": "Test System: AMES SALMONELLA TYPHIMURIUM, Strain/Indicator: TA1535, Metabolic Activation: RAT, LIVER, S-9, AROCLOR 1254, Method: PREINCUBATION", "result": "inactive; negative"}, {"measurement": "mutagenic call", "setting": "Test System: AMES SALMONELLA TYPHIMURIUM, Strain/Indicator: TA1537, Metabolic Activation: HAMSTER, LIVER, S-9, AROCLOR 1254, Method: PREINCUBATION", "result": "inactive; negative"}, {"measurement": "mutagenic call", "setting": "[6]", "result": "inactive; negative"}, {"measurement": "mutagenic call", "setting": "Test System: AMES SALMONELLA TYPHIMURIUM, Strain/Indicator: TA1537, Metabolic Activation: RAT, LIVER, S-9, AROCLOR 1254, Method: PREINCUBATION", "result": "inactive; negative"}]}
{"compound": "CC[C@H](C)[C@@H]1NC(=O)[C@H](CCCNC(=N)N)NC(=O)[C@H](CC(=O)O)NC(=O)[C@H](CCSC)NC(=O)[C@H](CCCNC(=N)N)NC(=O)CNC(=O)CNC(=O)[C@H](Cc2ccccc2)NC(=O)[C@@H](NC(=O)[C@H](CO)NC(=O)[C@H](CO)NC(=O)[C@H](CCCNC(=N)N)NC(=O)[C@H](CCCNC(=N)N)NC(=O)[C@H](CC(C)C)NC(=O)[C@@H](N)CO)CSSC[C@@H](C(=O)N[C@@H](CC(N)=O)C(=O)N[C@@H](CO)C(=O)N[C@@H](Cc2ccccc2)C(=O)N[C@@H](CCCNC(=N)N)C(=O)N[C@@H](Cc2ccc(O)cc2)C(=O)O)NC(=O)CNC(=O)[C@H](CC(C)C)NC(=O)CNC(=O)[C@H](CO)NC(=O)[C@H](CCC(N)=O)NC(=O)[C@H](C)NC(=O)CNC1=O", "values": [{"measurement": "mutagenic call", "setting": "[3]", "result": "inactive; negative"}, {"measurement": "mutagenic call", "setting": "Test System: AMES SALMONELLA TYPHIMURIUM, Strain/Indicator: TA98, Metabolic Activation: S-9, Method: PREINCUBATION", "result": "inactive; negative"}, {"measurement": "mutagenic call", "setting": "[4]", "result": "inactive; negative"}, {"measurement": "mutagenic call", "setting": "Test System: AMES SALMONELLA TYPHIMURIUM, Strain/Indicator: TA100, Metabolic Activation: S-9, Method: PREINCUBATION", "result": "inactive; negative"}, {"measurement": "mutagenic call", "setting": "[5]", "result": "inactive; negative"}, {"measurement": "mutagenic call", "setting": "Test System: AMES SALMONELLA TYPHIMURIUM, Strain/Indicator: TA1535, Metabolic Activation: S-9, Method: PREINCUBATION", "result": "inactive; negative"}, {"measurement": "mutagenic call", "setting": "[6]", "result": "inactive; negative"}, {"measurement": "mutagenic call", "setting": "Test System: AMES SALMONELLA TYPHIMURIUM, Strain/Indicator: TA1537, Metabolic Activation: S-9, Method: PREINCUBATION", "result": "inactive; negative"}, {"measurement": "mutagenic call", "setting": "Test System: E. COLI, Strain/Indicator: WP2 UVRA, Metabolic Activation: NONE, Method: PREINCUBATION", "result": "inactive; negative"}, {"measurement": "mutagenic call", "setting": "Test System: E. COLI, Strain/Indicator: WP2 UVRA, Metabolic Activation: S-9, Method: PREINCUBATION", "result": "inactive; negative"}]}
{"compound": "Cc1c2ccccc2c(COS(=O)(=O)O)c2ccccc12", "values": [{"measurement": "mutagenic call", "setting": "[3]", "result": "active; positive"}]}
